Laboratory results published in patent US20040110802A1, “Antibacterial benzoic acid derivatives” (priority 2002, published 2004).
Values after ≈ are worked out from the molar mass of the structure shown.

Tested on: SAUR 9218
Assay: MIC Test Method, standard agar dilution
Assay type: cell-based
Details: agar dilution, Mueller Hinton agar, incubated overnight at 35° C.; lowest concentration that inhibits visible growth; read-out: SAUR 9218 MIC
Summary of the method: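 MIC (μg/ml) was read as the lowest drug level without visible growth of SAUR 9218 after overnight incubation at 35 °C. Inocula of about 10^4 to 10^5 cells per spot were applied to Mueller Hinton agar containing 2-fold serial compound dilutions.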

MIC	SMILES
8 µg/mL (≈ 17.3 µM)	Cc1sc(C(=O)Nc2ccc(C#N)cc2C(=O)O)cc1S(=O)(=O)N(C)C1CCCCC1
0.25 µg/mL (≈ 0.693 µM)	O=C(Nc1ccc(Cl)cc1C(=O)O)c1cc(-c2ccccc2F)on1
2 µg/mL (≈ 4.69 µM)	CCCCCCCCCSc1cnc(C(=O)Nc2ccc(C#N)cc2C(=O)O)cn1
0.03 µg/mL (≈ 0.078 µM)	CCCCCCSc1ccc(C(=O)Nc2ccc(C#N)cc2C(=O)O)nn1
32 µg/mL (≈ 62.6 µM)	Cc1sc(C(=O)Nc2ccc(C#N)cc2C(=O)O)cc1S(=O)(=O)N1CCN(c2ccccn2)CC1
0.25 µg/mL (≈ 0.732 µM)	CC(C)Sc1ccc(C(=O)Nc2ccc(C#N)cc2C(=O)O)cn1
4 µg/mL (≈ 10.8 µM)	CCCCn1c(C(=O)Nc2ccc(Cl)cc2C(=O)O)cc2ccccc21
4 µg/mL (≈ 8.86 µM)	Cn1c(C(=O)Nc2ccc(C#N)cc2C(=O)O)cc2cccc(NC(=O)NCC(O)CO)c21 (centres unmarked)
> 128 µg/mL	COc1ncc(C#Cc2cncc(C(=O)Nc3ccc(C#N)cc3C(=O)O)c2)c(OC)n1
0.125 µg/mL (≈ 0.338 µM)	CCCC(C)Sc1ccc(C(=O)Nc2ccc(C#N)cc2C(=O)O)cn1 (centres unmarked)
0.5 µg/mL (≈ 1.2 µM)	Cc1ccc(-c2cccc3cc(C(=O)Nc4ccc(C#N)cc4C(=O)O)n(C)c23)s1
16 µg/mL (≈ 31.9 µM)	N#Cc1ccc(NC(=O)c2cc(-c3ccccc3Oc3ccc(-c4ccccc4)cc3)on2)c(C(=O)O)c1
0.5 µg/mL (≈ 0.999 µM)	N#Cc1ccc(NC(=O)c2cc3cccc(NC(=O)c4ccc(-c5ccccc5)cc4)c3[nH]2)c(C(=O)O)c1
64 µg/mL (≈ 148 µM)	O=C(Nc1ccc(Br)cc1C(=O)O)c1ccc(-c2ccc([N+](=O)[O-])cc2)o1
0.5 µg/mL	CCCSc1ccc(C(=O)Nc2ccc(C#N)cc2C(=O)O)cn1.Cl
0.5 µg/mL (≈ 1.5 µM)	N#Cc1ccc(NC(=O)c2cc(-c3ccccc3)no2)c(C(=O)O)c1
0.5 µg/mL (≈ 1.08 µM)	N#Cc1ccc(NC(=O)c2cc3cccc(NC(=O)C4CC4c4ccccc4)c3[nH]2)c(C(=O)O)c1 (centres unmarked)
0.25 µg/mL (≈ 0.72 µM)	Cc1ccccc1-c1cc(C(=O)Nc2ccc(C#N)cc2C(=O)O)no1
1 µg/mL (≈ 2.2 µM)	O=C(Nc1ccc(Br)cc1C(=O)O)c1cc(-c2ccc(C(F)(F)F)cc2)on1
0.25 µg/mL (≈ 0.579 µM)	N#Cc1ccc(NC(=O)c2ccc(SCc3nsc(Cl)n3)nc2)c(C(=O)O)c1
0.25 µg/mL (≈ 0.564 µM)	COc1ccc(OC)c(-c2ccc3onc(C(=O)Nc4ccc(C#N)cc4C(=O)O)c3c2)c1
8 µg/mL (≈ 22.4 µM)	Cc1ccccc1-c1cncc(C(=O)Nc2ccc(C#N)cc2C(=O)O)c1
1 µg/mL (≈ 2.58 µM)	O=C(Nc1ccc(Br)cc1C(=O)O)c1ncc(-c2ccccc2)o1
128 µg/mL (≈ 296 µM)	Cc1sc(C(=O)Nc2ccc(C#N)cc2C(=O)O)cc1S(=O)(=O)N(C)CCC#N
0.125 µg/mL (≈ 0.315 µM)	Cc1ccccc1-c1ccc2onc(C(=O)Nc3ccc(C#N)cc3C(=O)O)c2c1

MIC	SMILES
> 128 µg/mL	COc1ccc(C(=O)Nc2ccc(Br)cc2C(=O)O)c(OC)n1
0.5 µg/mL (≈ 1.09 µM)	CC(CC(=O)Nc1cccc2cc(C(=O)Nc3ccc(C#N)cc3C(=O)O)[nH]c12)CC(C)(C)C (centres unmarked)
0.125 µg/mL (≈ 0.267 µM)	Cn1c(C(=O)Nc2ccc(C#N)cc2C(=O)O)cc2cccc(NC(=O)NCc3ccccc3)c21
0.5 µg/mL (≈ 1.22 µM)	CCC(C)Sc1cnc(C(=O)Nc2ccc(Br)cc2C(=O)O)cn1 (centres unmarked)
> 128 µg/mL	O=C(O)c1cc(Br)ccc1NC(=O)c1ncccc1C(=O)c1ccccc1
0.5 µg/mL	Cl.Cn1c(C(=O)Nc2ccc(C#N)cc2C(=O)O)cc2cccc(OCC(O)CNCc3cccs3)c21 (centres unmarked)
0.125 µg/mL (≈ 0.275 µM)	O=C(Nc1ccc(Cl)cc1C(=O)O)c1cc2cccc(S(=O)(=O)c3ccccc3)c2[nH]1
1 µg/mL (≈ 2.63 µM)	COCCNc1ccc2onc(C(=O)Nc3ccc(C#N)cc3C(=O)O)c2c1
0.5 µg/mL (≈ 1.14 µM)	CCCCCCSc1cnc(C(=O)Nc2ccc(Br)cc2C(=O)O)cn1
1 µg/mL (≈ 2.01 µM)	CC(=O)OC(C(=O)Nc1cccc2cc(C(=O)Nc3ccc(C#N)cc3C(=O)O)[nH]c12)c1ccccc1 (centres unmarked)
128 µg/mL (≈ 270 µM)	Cc1ncsc1CCOc1ccccc1-c1cc(C(=O)Nc2ccc(C#N)cc2C(=O)O)no1
0.125 µg/mL (≈ 0.299 µM)	N#Cc1ccc(NC(=O)c2cc(-c3ccccc3OCC3CCC3)on2)c(C(=O)O)c1
1 µg/mL	Cl.Cn1c(C(=O)Nc2ccc(C#N)cc2C(=O)O)cc2cccc(OCC(O)CNCC(O)c3ccccc3)c21 (centres unmarked)
1 µg/mL (≈ 2.07 µM)	CCCOc1ccccc1C(=O)Nc1cccc2cc(C(=O)Nc3ccc(C#N)cc3C(=O)O)[nH]c12
32 µg/mL (≈ 106 µM)	N#Cc1ccc(NC(=O)c2cnc(Cl)cn2)c(C(=O)O)c1
64 µg/mL (≈ 152 µM)	N#Cc1ccc(NC(=O)c2ccc(S(=O)(=O)Cc3ccccc3)nc2)c(C(=O)O)c1
0.125 µg/mL (≈ 0.304 µM)	N#Cc1ccc(NC(=O)c2cc3cccc(OCc4ccccc4)c3[nH]2)c(C(=O)O)c1
0.5 µg/mL (≈ 1.41 µM)	CCC(C)Sc1ccc(C(=O)Nc2ccc(C#N)cc2C(=O)O)cn1 (centres unmarked)
0.5 µg/mL (≈ 1.15 µM)	Cn1c(C(=O)Nc2ccc(C#N)cc2C(=O)O)cc2cccc(OCC3CCCCO3)c21 (centres unmarked)
2 µg/mL (≈ 4.51 µM)	N#Cc1ccc(NC(=O)c2cc(-c3ccccc3OCC3C=CCCC3)on2)c(C(=O)O)c1 (centres unmarked)
16 µg/mL (≈ 46.3 µM)	COCc1onc(C(=O)Nc2ccc(C#N)cc2C(=O)O)c1COC
0.125 µg/mL (≈ 0.244 µM)	N#Cc1ccc(NC(=O)c2ccc(SCCCOc3ccc(Br)cc3)nc2)c(C(=O)O)c1
0.125 µg/mL (≈ 0.315 µM)	N#Cc1ccc(NC(=O)c2nnc(SCc3ccccc3)s2)c(C(=O)O)c1
4 µg/mL (≈ 8.38 µM)	O=C(O)c1cc(Br)ccc1NC(=O)c1cc2ccccc2n1CCCc1ccccc1
64 µg/mL (≈ 202 µM)	N#Cc1ccc(/C=C/c2cc(-c3ccccc3)on2)c(C(=O)O)c1

The next lines start with the compound.

SMILES	MIC
N#Cc1ccc(NC(=O)c2nsc(Cl)c2Cl)c(C(=O)O)c1	4 µg/mL (≈ 11.7 µM)
N#Cc1ccc(NC(=O)c2noc3ccc(NC(=O)c4ccccc4)cc23)c(C(=O)O)c1	1 µg/mL (≈ 2.35 µM)
N#Cc1ccc(NC(=O)c2noc3ccc(NS(=O)(=O)c4ccc(F)cc4)cc23)c(C(=O)O)c1	0.125 µg/mL (≈ 0.26 µM)
O=C(O)c1cc(Cl)ccc1NC(=O)c1cc2ccccc2n1CC1CCCCC1	0.5 µg/mL (≈ 1.22 µM)
O=C(Nc1ccc(Cl)cc1C(=O)O)c1cc(-c2ccccc2Cl)on1	0.5 µg/mL (≈ 1.33 µM)
CCCCS(=O)(=O)N(c1ccc2cc(C(=O)Nc3ccc(C#N)cc3C(=O)O)n(C)c2c1)S(=O)(=O)CCCC	2 µg/mL (≈ 3.48 µM)
N#Cc1ccc(NC(=O)c2cc3cccc(NC(=O)Cc4csc5ccccc45)c3[nH]2)c(C(=O)O)c1	0.25 µg/mL (≈ 0.506 µM)
O=C(Nc1ccc(Br)cc1C(=O)O)c1csc(S(=O)(=O)N2CCc3ccc(Cl)cc32)c1	8 µg/mL (≈ 14.8 µM)
O=C(Nc1ccc(Br)cc1C(=O)O)c1ccc2c(c1)S(=O)(=O)c1ccccc1C2=O	16 µg/mL (≈ 32.9 µM)
N#Cc1ccc(NC(=O)c2n[nH]c3ccccc23)c(C(=O)O)c1	16 µg/mL (≈ 52.2 µM)
CCOP(=O)(Cc1ccc(NS(=O)(=O)c2cc(C(=O)Nc3ccc(Br)cc3C(=O)O)sc2C)cc1)OCC	64 µg/mL (≈ 99.1 µM)
N#Cc1ccc(NC(=O)c2cc3ccc(OCc4ccccc4)cc3[nH]2)c(C(=O)O)c1	0.125 µg/mL (≈ 0.304 µM)
N#Cc1ccc(NC(=O)c2cc3cccc(NC(=O)C4CCOC4)c3[nH]2)c(C(=O)O)c1 (centres unmarked)	2 µg/mL (≈ 4.78 µM)
O=C(O)c1cc(Br)ccc1NC(=O)c1ccnc2ccccc12	> 128 µg/mL
N#Cc1ccc(NC(=O)c2cc(CN3CCOCC3)on2)c(C(=O)O)c1	16 µg/mL (≈ 44.9 µM)
CCCCC(CC)C(=O)Nc1cccc2cc(C(=O)Nc3ccc(C#N)cc3C(=O)O)[nH]c12 (centres unmarked)	0.5 µg/mL (≈ 1.12 µM)
N#Cc1ccc(NC(=O)c2cc3cccc(NS(=O)(=O)c4ccc(OC(F)(F)F)cc4)c3[nH]2)c(C(=O)O)c1	1 µg/mL (≈ 1.84 µM)
N#Cc1ccc(NC(=O)c2cc3cc(-c4ccccc4)oc3cn2)c(C(=O)O)c1	8 µg/mL (≈ 20.9 µM)
N#Cc1ccc(NC(=O)c2noc3cc(OS(=O)(=O)Cc4ccccc4)ccc23)c(C(=O)O)c1	0.25 µg/mL (≈ 0.524 µM)
Cn1c(C(=O)Nc2ccc(C#N)cc2C(=O)O)cc2cccc(NC(=O)Cc3ccncc3)c21.O=C(O)C(F)(F)F	1 µg/mL
N#Cc1ccc(NC(=O)c2noc3cc(NS(=O)(=O)c4ccccc4)ccc23)c(C(=O)O)c1	1 µg/mL (≈ 2.16 µM)
O=C(Nc1ccc(Cl)cc1C(=O)O)c1cc(-c2ccccc2NS(=O)(=O)c2ccc(OC(F)(F)F)cc2)on1	8 µg/mL (≈ 13.7 µM)
N#Cc1ccc(NC(=O)c2cc(CCl)on2)c(C(=O)O)c1	4 µg/mL (≈ 13.1 µM)
O=C(O)c1cc(Br)ccc1NC(=O)c1ncc(C(F)(F)F)cc1Cl	64 µg/mL (≈ 151 µM)

SMILES	MIC
O=C(O)c1cc(Br)ccc1NC(=O)c1noc2ccc(S(=O)(=O)NCc3ccccc3)cc12	0.06 µg/mL (≈ 0.113 µM)
Cc1sc(C(=O)Nc2ccc(C#N)cc2C(=O)O)cc1S(=O)(=O)N1CCCC1	16 µg/mL (≈ 38.1 µM)
Cc1c(S(=O)(=O)Nc2ccc3c(c2)OCCO3)csc1C(=O)Nc1ccc(Br)cc1C(=O)O	16 µg/mL (≈ 28.9 µM)
N#Cc1ccc(NC(=O)c2cncc(-c3cccc(C(F)(F)F)c3)c2)c(C(=O)O)c1	16 µg/mL (≈ 38.9 µM)
Cn1c(C(=O)Nc2ccc(C#N)cc2C(=O)O)cc2ccc(NS(=O)(=O)c3cccs3)cc21	0.5 µg/mL (≈ 1.04 µM)
N#Cc1ccc(NC(=O)c2nc3ccccc3o2)c(C(=O)O)c1	1 µg/mL (≈ 3.25 µM)
CCCCCSc1nnc(C(=O)Nc2ccc(Br)cc2C(=O)O)o1	0.25 µg/mL (≈ 0.603 µM)
N#Cc1ccc(NC(=O)c2cc(CNC(=N)N)on2)c(C(=O)O)c1	128 µg/mL (≈ 390 µM)
O=C(Nc1ccc(Br)cc1C(=O)O)c1ccsc1	> 128 µg/mL
Cn1c(C(=O)Nc2ccc(C#N)cc2C(=O)O)cc2cccc(-c3ccccc3F)c21	0.25 µg/mL (≈ 0.605 µM)
Cn1c(C(=O)Nc2ccc(Br)cc2C(=O)O)cc2cccc(S(=O)(=O)c3ccccc3)c21	0.125 µg/mL (≈ 0.243 µM)
O=C(O)c1cc(Br)ccc1NC(=O)c1noc2ccc(S(=O)(=O)N3CCCC3)cc12	0.25 µg/mL (≈ 0.506 µM)
COc1ccc(-c2cnc(C(=O)Nc3ccc(C#N)cc3C(=O)O)o2)cc1	1 µg/mL (≈ 2.75 µM)
O=C(Nc1ccc(Br)cc1C(=O)O)c1cc(CCCC2CCCCC2)on1	4 µg/mL (≈ 9.19 µM)
Cn1c(C(=O)Nc2ccc(C#N)cc2C(=O)O)cc2cccc(O)c21	1 µg/mL (≈ 2.98 µM)
N#Cc1ccc(NC(=O)c2ccoc2)c(C(=O)O)c1	> 128 µg/mL
N#Cc1ccc(NC(=O)c2cncc(-c3ccccc3C(F)(F)F)c2)c(C(=O)O)c1	2 µg/mL (≈ 4.86 µM)
O=C(O)c1cc(Br)ccc1NC(=O)c1cc(-c2ccccc2)nc2ccccc12	64 µg/mL (≈ 143 µM)
N#Cc1ccc(NC(=O)c2cnc(-c3ccccc3F)cn2)c(C(=O)O)c1	4 µg/mL (≈ 11 µM)
COc1ccc(-c2cnc(C(=O)Nc3ccc(C#N)cc3C(=O)O)cn2)c(OC)c1OC	> 128 µg/mL
N#Cc1ccc(NC(=O)c2cc3cccc(NC(=O)Cc4ccc5c(c4)OCO5)c3[nH]2)c(C(=O)O)c1	0.5 µg/mL (≈ 1.04 µM)
O=C(Nc1ccc(O)cc1C(=O)O)c1cc(-c2ccccc2Br)on1	0.125 µg/mL (≈ 0.31 µM)
Cn1c(C(=O)Nc2ccc(Br)cc2C(=O)O)cc2ccccc21	0.5 µg/mL (≈ 1.34 µM)
CC(C)=CCOCC(O)COc1cccc2cc(C(=O)Nc3ccc(C#N)cc3C(=O)O)n(C)c12 (centres unmarked)	0.5 µg/mL (≈ 1.05 µM)
